Records with an inconclusive call do not appear.
System: BDF1 mice, s.c. Lewis lung carcinoma, T/C %
Experiment: NCI In Vivo Anticancer Drug Screen. Data for tumor model Lewis Lung Carcinoma (subcutaneous) in B6D2F1 (BDF1) mice
Summary of the method: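 Antitumor effect in vivo is scored from survival or tumor burden, reported as treated relative to vehicle controls.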

[1] = endpoint: median survival time, dose: 2.5 mg/kg/injection, schedule: Q01DX009 (ip), vehicle: saline, higher = longer survival
[2] = endpoint: median survival time, dose: 5.0 mg/kg/injection, schedule: Q01DX009 (ip), vehicle: saline, higher = longer survival
[3] = endpoint: median survival time, dose: 10.0 mg/kg/injection, schedule: Q01DX009 (ip), vehicle: saline, higher = longer survival
[4] = endpoint: mean tumor weight, dose: 250.0 mg/kg/injection, schedule: Q01DX011 (ip), vehicle: other, higher = larger tumour
[5] = endpoint: mean tumor weight, dose: 1000.0 mg/kg/injection, schedule: Q01DX011 (ip), vehicle: other, higher = larger tumour

## C[C@]12CCC(=O)C=C1CC[C@@H]1[C@@H]2[C@@H](O)C[C@@]2(C)[C@H]1CC[C@]2(O)C(=O)COC(=O)CCC(=O)O
endpoint: mean tumor weight, dose: 87.5 mg/kg/injection, schedule: Q01DX011 (sc), vehicle: steriod suspending solution, higher = larger tumour
  T/C: 76 % of control
endpoint: mean tumor weight, dose: 175.0 mg/kg/injection, schedule: Q01DX011 (sc), vehicle: steriod suspending solution, higher = larger tumour
  T/C: 79 % of control
endpoint: mean tumor weight, dose: 350.0 mg/kg/injection, schedule: Q01DX011 (sc), vehicle: steriod suspending solution, higher = larger tumour
  T/C: 66 % of control
endpoint: mean tumor weight, dose: 500.0 mg/kg/injection, schedule: Q01DX011 (sc), vehicle: steriod suspending solution, higher = larger tumour
  T/C: 26 % of control
endpoint: mean tumor weight, dose: 700.0 mg/kg/injection, schedule: Q01DX011 (sc), vehicle: steriod suspending solution, higher = larger tumour
  T/C: 72 % of control

## NC(=NCc1ccccc1)c1ccc(N=C(N)c2ccc(C(N)=Nc3ccc(C(N)=NCc4ccccc4)cc3)cc2)cc1
[1]
  T/C: 113 % of control
[2]
  T/C: 107 % of control
[3]
  T/C: 111 % of control

## CNC1C(OC2C(OC3C(O)C(O)C(N=C(N)N)C(O)C3N=C(N)N)OC(C)C2(O)C=O)OC(CO)C(O)C1O (centres undefined)
endpoint: median survival time, dose: 50.0 mg/kg/injection, schedule: Q01DX009 (ip), vehicle: water, higher = longer survival
  T/C: 95 % of control
endpoint: median survival time, dose: 100.0 mg/kg/injection, schedule: Q01DX009 (ip), vehicle: water, higher = longer survival
  T/C: 102 % of control
endpoint: median survival time, dose: 200.0 mg/kg/injection, schedule: Q01DX009 (ip), vehicle: water, higher = longer survival
  T/C: 105 % of control

## CCCCOP(=S)(N1CC1)N1CC1
endpoint: mean tumor weight, dose: 2.5 mg/kg/injection, schedule: Q01DX011 (ip), vehicle: saline, higher = larger tumour
  T/C: 79 % of control
endpoint: mean tumor weight, dose: 5.0 mg/kg/injection, schedule: Q01DX011 (ip), vehicle: saline, higher = larger tumour
  T/C: 52 % of control
endpoint: mean tumor weight, dose: 10.0 mg/kg/injection, schedule: Q01DX011 (ip), vehicle: saline, higher = larger tumour
  T/C: 23 % of control

## O=C(Nc1ccc(C2=NCCN2)cc1)c1ccc(C(=O)Nc2ccc(C3=NCCN3)cc2)c([N+](=O)[O-])c1
endpoint: mean tumor weight, dose: 4.0 mg/kg/injection, schedule: Q01DX011 (ip), vehicle: saline, higher = larger tumour
  T/C: 122 % of control
endpoint: mean tumor weight, dose: 8.0 mg/kg/injection, schedule: Q01DX011 (ip), vehicle: saline, higher = larger tumour
  T/C: 85 % of control
endpoint: mean tumor weight, dose: 16.0 mg/kg/injection, schedule: Q01DX011 (ip), vehicle: saline, higher = larger tumour
  T/C: 26 % of control

## CCCNC(=NC)c1ccc(NC(=O)c2ccc(C(=O)Nc3ccc(C(=NC)NCCC)cc3)cc2)cc1
endpoint: mean tumor weight, dose: 2.5 mg/kg/injection, schedule: Q01DX011 (ip), vehicle: other, higher = larger tumour
  T/C: 124 % of control
endpoint: mean tumor weight, dose: 5.0 mg/kg/injection, schedule: Q01DX011 (ip), vehicle: other, higher = larger tumour
  T/C: 56 % of control

## Nc1nc(SCc2ccc([N+](=O)[O-])cc2)c2[nH]cnc2n1
endpoint: mean tumor weight, dose: 125.0 mg/kg/injection, schedule: Q01DX011 (ip), vehicle: other, higher = larger tumour
  T/C: 98 % of control
[4]
  T/C: 75 % of control
endpoint: mean tumor weight, dose: 500.0 mg/kg/injection, schedule: Q01DX011 (ip), vehicle: other, higher = larger tumour
  T/C: 80 % of control
[5]
  T/C: 36 % of control

## Cc1c(N)nc(C(CC(N)=O)NCC(N)C(N)=O)nc1C(=O)NC(C(=O)NC(C)C(O)C(C)C(=O)NC(C(=O)NCCc1nc(-c2nc(C(=O)NCCC[S+](C)C)cs2)cs1)C(C)O)C(OC1OC(CO)C(O)C(O)C1OC1OC(CO)C(O)C(OC(N)=O)C1O)c1cnc[nH]1 (centres undefined)
endpoint: median survival time, dose: 0.5 mg/kg/injection, schedule: Q01DX009 (ip), vehicle: Klucel (hydroxypropylcellulose) (HPC), higher = longer survival
  T/C: 116 % of control
endpoint: median survival time, dose: 1.0 mg/kg/injection, schedule: Q01DX009 (ip), vehicle: Klucel (hydroxypropylcellulose) (HPC), higher = longer survival
  T/C: 121 % of control
endpoint: median survival time, dose: 2.0 mg/kg/injection, schedule: Q01DX009 (ip), vehicle: Klucel (hydroxypropylcellulose) (HPC), higher = longer survival
  T/C: 121 % of control
endpoint: median survival time, dose: 4.0 mg/kg/injection, schedule: Q01DX009 (ip), vehicle: Klucel (hydroxypropylcellulose) (HPC), higher = longer survival
  T/C: 121 % of control

## c1ccc(C2=C(c3ccccc3)C(c3ccccc3)=C(c3ccccc3)C2)cc1
endpoint: mean tumor weight, dose: 118.0 mg/kg/injection, schedule: Q01DX011 (ip), vehicle: other, higher = larger tumour
  T/C: 89 % of control
endpoint: mean tumor weight, dose: 178.0 mg/kg/injection, schedule: Q01DX011 (ip), vehicle: other, higher = larger tumour
  T/C: 65 % of control
[4]
  T/C: 92 % of control
endpoint: mean tumor weight, dose: 266.0 mg/kg/injection, schedule: Q01DX011 (ip), vehicle: other, higher = larger tumour
  T/C: 84 % of control
endpoint: mean tumor weight, dose: 400.0 mg/kg/injection, schedule: Q01DX011 (ip), vehicle: other, higher = larger tumour
  T/C: 109 % of control
endpoint: mean tumor weight, dose: 750.0 mg/kg/injection, schedule: Q01DX011 (ip), vehicle: other, higher = larger tumour
  T/C: 124 % of control
[5]
  T/C: 60 % of control

## CC[n+]1ccc(Nc2ccc(/C=C/c3ccc4cc(Nc5cc[n+](CC)cc5)ccc4[n+]3CC)cc2)cc1
[1]
  T/C: 95 % of control
[2]
  T/C: 100 % of control
[3]
  T/C: 91 % of control

## CCOCCCN
endpoint: mean tumor weight, dose: 44.0 mg/kg/injection, schedule: Q01DX011 (ip), vehicle: saline, higher = larger tumour
  T/C: 106 % of control
endpoint: mean tumor weight, dose: 66.0 mg/kg/injection, schedule: Q01DX011 (ip), vehicle: saline, higher = larger tumour
  T/C: 97 % of control
endpoint: mean tumor weight, dose: 100.0 mg/kg/injection, schedule: Q01DX011 (ip), vehicle: saline, higher = larger tumour
  T/C: 123 % of control
endpoint: mean tumor weight, dose: 148.0 mg/kg/injection, schedule: Q01DX011 (ip), vehicle: saline, higher = larger tumour
  T/C: 101 % of control

## CC(=O)O[C@@H]1[C@@H](O)[C@H]2O[C@@H]3C=C(C)CC[C@]3(CO)[C@]1(C)[C@@]21CO1
endpoint: median survival time, dose: 1.25 mg/kg/injection, schedule: Q01DX009 (ip), vehicle: saline with Tween-80, higher = longer survival
  T/C: 92 % of control
endpoint: median survival time, dose: 2.5 mg/kg/injection, schedule: Q01DX009 (ip), vehicle: saline with Tween-80, higher = longer survival
  T/C: 100 % of control
endpoint: median survival time, dose: 5.0 mg/kg/injection, schedule: Q01DX009 (ip), vehicle: saline with Tween-80, higher = longer survival
  T/C: 97 % of control

— PubChem BioAssay AID270 (DTP/NCI, 2004)
